Experiments:
Assay in all cases: Quantitative fluorescence assay for matrix metalloproteinases (cleavage of Mca-Pro-Leu-Gly-Leu-Dpa-Ala-Arg-NH2)
Assay type in all cases: biochemical
[1] = molecular target: T1, katalytische Domäne der MMP-3 (Homo sapiens, UniProt P08254); conditions: for Ki: Dixon plot
T1 construct: Die katalytische Domäne der humanen MMP-3 wurde nach den Angaben in folgender Publikation kloniert; made in house
Method: Die katalytische Domäne der humanen MMP-3 wurde nach den Angaben in folgender Publikation kloniert: Ye Q-Z, Johnson LL, Hupe DJ, Baragi V: Purification and Characterization of the Human Stromelysin Catalytic Domain Expressed in Escherichia coli. Biochemistry (1992), 31, 11231-11235). Nach Rückfaltung des Enzyms und Gelfiltration an Sephadex G-50 (Laufpuffer 100 mM Tris-HCI pH 7,5, 10 mM CaCl2, 100 mM NaCI, 0,05% Brij 35) erhielten wir ein zu 95% reines Präparat.
(§1) Durch enzymatische Spaltung des synthetischen Substrates Mca-Pro-Leu-Gly-Leu-Dpa-Ala-Arg-NH2 durch die jeweilige Kollagenase, wird die fluoreszente Gruppe Mca ((7-Methoxycoumarin-4-yl)acetyl) vom internen Quencher Dpa ((N-3-(2,4-dinitrophenyl)-L-2,3-diaminopropienyl) getrennt. Dabei erfolgt eine starke Zunahme der Fluoreszenz im Messansatz, die am Fluorimeter quantifiziert werden kann (λex 328 nm, λem 393 nm) und innerhalb der ersten Minuten linear verläuft. Eine gewisse Spezifität des Tests für Matrix-Metalloproteinasen ergibt sich einerseits aus der Aminosäuresequenz -Pro-Leu-Gly-Leu- im Substrat und andererseits durch die gewählten Inkubationsbedingungen. Matrix-Metalloproteinasen spalten das Substrat an der Bindung Gly-Leu. Gemessen wird die proteolytische Restaktivität vorinkubierter Ansätze von Enzym und Inhibitor, wobei die Substrat- und Enzymkonzentration konstant gehalten und die Inhibitorkonzentration variiert wurde. Es wurden für jeden getesteten Inhibitor drei Messreihen mit unterschiedlicher Substratkonzentration aufgenommen. Aus der zeitabhängigen Fluoreszenzzunahme wird die Enzymaktivität in Fluoreszenzeinheiten pro min berechnet. Die Bestimmung der Ki-Werte erfolgte graphisch nach der Methode von DIXON (1953) durch Auftragung der reziproken Reaktionsgeschwindigkeit 1/v (y-Achse) gegen Inhibitorkonzentration (x-Achse).
(§2) 1984 µl Messpuffer (100mM Tris-HCI pH 7,5, 100 mM NaCI, 10 mM CaCl2, 0,05% Brij 35 bzw. 50 mM MES-NaOH, pH 6.0, 10 mM CaCl2, 100 mM NaCI, 0.05% Brij 35 im Fall der KaDo MMP-3) 2 µl Inhibitor, gelöst in DMSO, bzw. DMSO allein (nichtinhibierender Ansatz) 4 µl Enzym • 5 min. Vorinkubation des Enzym-Inhibitor-Gemischs bei Raumtemperatur unter Rühren • Start der Reaktion mit 10 µl Substrat gelöst in DMSO • Aufzeichnung der zeitabhängigen Fluoreszenzzunahme über 2 - 10 min.

MMP-9 = molecular target: T2, MMP-9 (Homo sapiens, UniProt P14780)
T2 construct: Das latente Enzym wird durch 30 - 60 min; Inkubation bei 37°C mit 1/100 Vol. Trypsin (10 mg/ml) aktiviert; from tissue; host or cells: human buffy coat (blood leukocytes)
Method: Native MMP-9 wurde reproduzierbar und in guter Ausbeute und Reinheit aus humanem Buffy Coat gewonnen. Hierzu wird Buffy Coat mit 10% (v/v) Triton X-100 auf eine Endkonzentration von 0,4% gebracht, 30 min. auf Eis geschüttelt und dann 1 Vol. 2-fach Bindungspuffer (40 mM Tris-HCI pH 7,5, 10 mM CaCl2, 1 M NaCI, 0,2% (v/v) Triton X-100) hinzugefügt und weitere 30 min. auf Eis geschüttelt. Die Lösung wird 15 min. bei 16 000 Upm an einem SS-34 Rotor bei 4°C abzentrifugiert und über Glaswolle filtriert. Das Filtrat wird mit Gelatine-Agarose, welche mit Bindungspuffer äquilibriert wurde, gebatcht und 1 Std. auf Eis geschüttelt. Die beladene Gelatine-Agarose wird in eine Säule überführt und mit mindestens 10 Vol. Bindungspuffer proteinfrei gespült. Die Elution der gebundenen MMP-9 erfolgt mit 2 Gelvolumen Bindungspuffer plus 5% (v/v) DMSO. Das Eluat kann zum Puffer-Austausch und gleichzeitiger Abtrennung geringer Verunreinigungen an MMP-2 über eine Gelfiltration an Sephadex G-75 aufgetrennt werden. Hierzu wird der Puffer I (20 mM Tris-HCI pH 7,5, 5 mM CaCl2, 100 mM NaCI, 0,1% (v/v) Triton X-100) verwendet. Das so gewonnene Eluat enthällt MMP-9 in den drei bekannten Zustandsformen: Monomer, Homodimer, Heterodimer. Die Reinheit des Enzyms beträgt ca. 90%, wobei die restlichen Fremdproteine Fibronektin und äußerst geringe Mengen an TIMP's sind. Das latente Enzym wird durch 30 - 60 min. Inkubation bei 37°C mit 1/100 Vol. Trypsin (10 mg/ml) aktiviert. Trypsin wird durch Zugabe von 1 mM PMSF oder mit einem spezifischen Inhibitor (TKI) gehemmt.
as §1, §2

[2] = molecular target: T3, katalytische Domäne der MT1-MMP (Homo sapiens, UniProt P50281)
T3 construct: Die katalytische Domäne der humanen MT1-MMP wurde nach den Angaben in folgender Publikation kloniert; made in house
Method: Die katalytische Domäne der humanen MT1-MMP wurde nach den Angaben in folgender Publikation kloniert: Lichte A, Kolkenbrock H, Tschesche H: The recombinant catalytic domain of membrane-type matrix metalloproteinase-1 (MT1-MMP) induces activation of progelatinase A and progelatinase A complexed with TIMP-2. FEBS letters (1996), 397, 277-282.
Nach Rückfaltung des Enyzms, Autoprozessierung zur aktiven Form und Gelfiltration an Sephadex G-50 (Laufpuffer 20 mM Tris-HCI pH 7,5, 5 mM CaCl2, 100 mM NaCI, 0,1 mM ZnCl2, 0,02% (w/v) Natriumazid) erhielten wir ein zu 95% reines Präparat.
as §1, §2

[3] = molecular target: T4, katalytische Domäne der MMP-8 (Homo sapiens, UniProt P22894)
T4 construct: dass wir statt des Gesamtenzyms nur dessen enzymatisch aktive katalytische Domäne in E. coli klonierten; made in house; host or cells: E. coli
Text: Die Nutzung der katalytischen Domäne der MMP-8 als weiteres Testenzym wurde deshalb gewählt, weil es eine hohe Stabilität besitzt und darüber hinaus als aktives Enzym vorliegt. Es muß deshalb nicht aktiviert werden, was eine der häufigsten Fehlerursachen darstellt, da die zur Aktivierung genutzten Quecksilberverbindungen häufig mit dem Testsystem bzw. dem Enzym interferieren und dadurch die Messergebnisse verfälschen werden. Die Klonierungsstrategie gestalteten wir so, dass wir statt des Gesamtenzyms nur dessen enzymatisch aktive katalytische Domäne in E. coli klonierten. Mit der konstruierten katalytischen Domäne der MMP-8 erzielten wir ein stabiles, enzymatisch aktives und hochreines Enzym, welches für die Routineuntersuchungen der inhibitorischen Aktivität der synthetisierten Inhibitoren sehr gut geeignet war und die Messergebnisse der einzelnen Messserien miteinander vergleichbar machte. Die Klonierung und Expression der katalytischen Domäne der MMP-8 wurde entsprechend den Angaben von SCHNIERER et al. (Schnierer S, Kleine T, Gote T, Hillemann A, Knäuper V, Tschesche H: The recombinant catalytic domain of human neutrophil collagenase lacks type I collagen substrate specificity. Biochem Biophys Res Comm (1993) vol. 191 No. 2, 319-326) durchgeführt.
as §1, §2

[4] = result in words, concentration not given

T1 sequence (P08254 100-272 limits assumed): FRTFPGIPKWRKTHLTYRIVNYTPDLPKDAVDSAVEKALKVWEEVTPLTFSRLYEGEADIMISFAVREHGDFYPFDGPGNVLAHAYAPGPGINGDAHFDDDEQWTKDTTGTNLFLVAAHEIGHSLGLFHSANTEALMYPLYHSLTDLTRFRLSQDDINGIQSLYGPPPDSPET
T2 sequence (P14780 107-707 limits assumed): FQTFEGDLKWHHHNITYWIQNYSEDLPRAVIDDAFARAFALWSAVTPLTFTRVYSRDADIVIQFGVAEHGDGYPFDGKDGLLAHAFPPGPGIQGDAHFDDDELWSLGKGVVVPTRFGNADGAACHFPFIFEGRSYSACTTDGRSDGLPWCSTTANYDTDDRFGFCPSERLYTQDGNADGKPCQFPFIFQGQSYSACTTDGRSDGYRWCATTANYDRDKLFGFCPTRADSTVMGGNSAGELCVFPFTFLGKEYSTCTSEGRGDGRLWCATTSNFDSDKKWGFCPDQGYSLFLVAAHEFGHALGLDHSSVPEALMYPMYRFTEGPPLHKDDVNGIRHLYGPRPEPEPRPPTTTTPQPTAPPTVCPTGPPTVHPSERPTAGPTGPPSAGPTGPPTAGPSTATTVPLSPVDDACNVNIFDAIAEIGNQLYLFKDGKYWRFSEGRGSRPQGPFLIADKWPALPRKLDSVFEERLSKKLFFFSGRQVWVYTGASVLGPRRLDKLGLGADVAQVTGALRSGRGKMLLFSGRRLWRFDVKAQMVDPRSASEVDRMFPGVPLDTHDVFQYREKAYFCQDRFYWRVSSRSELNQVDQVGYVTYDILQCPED
T4 sequence (P22894 100-262 limits assumed): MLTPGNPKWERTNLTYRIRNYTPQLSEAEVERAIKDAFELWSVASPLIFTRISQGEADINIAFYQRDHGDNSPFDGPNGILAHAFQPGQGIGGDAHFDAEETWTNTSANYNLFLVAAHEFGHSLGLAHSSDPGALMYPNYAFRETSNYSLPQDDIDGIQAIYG

| MMP-3 Hemmung ([1]; bei 10 µM) [% Hemmung bei 10 µM] | MMP-9 Hemmung (MMP-9; bei 10 µM) [% Hemmung bei 10 µM] | MT1-MMP Hemmung ([2]; bei 10 µM) [% Hemmung bei 10 µM] | MMP-8 Hemmung ([3]; bei 10 µM) [% Hemmung bei 10 µM] | Compound | other results |
| --- | --- | --- | --- | --- | --- |
| 15 | 50 | 60 | 60 | O=c1[nH]c2ccc(Cl)cc2c(=O)n1CC(S)CS (racemic) [Beispiel 4, (R,S)-6-Chlor-3-(2,3-dimercaptopropyl)chinazolin-2,4-(1H,3H)dion] | – |
| – | – | – | – | O=C(NCc1ccccc1)c1ccc2c(=O)n(CC(S)CS)c(=O)[nH]c2c1 (racemic) [Beispiel 8, (R,S)-N-Benzyl-3-(2,3-dimercaptopropyl)-2,4-dioxo-1,2,3,4-tetrahydrochinazolin-7-carboxamide] | MMP-3 Hemmung ([1]; bei 5 µM): 30% Hemmung bei 5 µM; MMP-9 Hemmung (MMP-9; bei 5 µM): 30% Hemmung bei 5 µM; MT1-MMP Hemmung ([2]; bei 5 µM): 30% Hemmung bei 5 µM; MMP-8 Hemmung ([3]; bei 5 µM): 30% Hemmung bei 5 µM |
| 90 | 70 | 80 | 70 | Cc1cccc2[nH]c(=O)n(CC(S)CS)c(=O)c12 (racemic) [Beispiel 5, (R,S)-3-(2,3-Dimercaptopropyl)-5-methyl-chinazolin-2,4-(1H,3H)dion] | – |
| 70 | 70 | 40 | 70 | O=c1[nH]c2ccccc2c(=O)n1CC(S)CS (racemic) [Beispiel 1, (R,S)-3-(2,3-Dimercaptopropyl)chinazolin-2,4-(1H,3H)dion] | – |
| – | – | – | – | O=c1[nH]c2sc(-c3ccccc3)cc2c(=O)n1CC(S)CS (racemic) [Beispiel 11, (R,S)-3-(2,3-Dimercaptopropyl)-6-phenylthieno[2,3-d]pyrimidin-2,4(1H,3H)-dion] | MMP-3 Hemmung [1, 4]: Keine Hemmung; MMP-9 Hemmung (MMP-9; bei 1 µM): 15% Hemmung bei 1 µM; MT1-MMP Hemmung [2, 4]: Keine Hemmung; MMP-8 Hemmung ([3]; bei 1 µM): 30% Hemmung bei 1 µM |
| – | – | – | – | COc1cc2[nH]c(=O)n(CC(S)CS)c(=O)c2cc1OC (racemic) [Beispiel 7, (R,S)-3-(2,3-Dimercaptopropyl)-6,7-dimethoxy-chinazolin-2,4-(1H,3H)dion] | Ki [1]: 1000 nM; MMP-9 Hemmung (MMP-9; bei 1 µM): 20% Hemmung bei 1 µM; MT1-MMP Hemmung [2, 4]: keine Hemmung; MMP-8 Hemmung ([3]; bei 1 µM): 20% Hemmung bei 1 µM |
| 97 | 83 | 73 | 87 | O=c1[nH]c2cc(Cl)ccc2c(=O)n1CC(S)CS (racemic) [Beispiel 3, (R,S)-7-Chlor-3-(2,3-dimercaptopropyl)chinazolin-2,4-(1H,3H)dion] | – |
| 55 | 68 | 42 | 39 | O=c1[nH]c2sc3c(c2c(=O)n1CC(S)CS)CCCC3 (racemic) [Beispiel 10, (R,S)-3-(2,3-Dimercaptopropyl)-5,6,7,8-tetrahydro[1]benzothieno[2,3-d]pyrimidin-2,4(1H,3H)-dion] | – |
| – | – | – | – | O=c1[nH]c2ccsc2c(=O)n1CC(S)CS (racemic) [Beispiel 9, (R,S)-3-(2,3-Dimercaptopropyl)thieno[3,2-d]pyrimidin-2,4(1H,3H)-dion] | Ki [1]: 250 nM; MMP-9 Hemmung (MMP-9; bei 2,5 µM): 50% Hemmung bei 2,5 µM; MT1-MMP Hemmung ([2]; bei 3 µM): 50% Hemmung bei 3 µM; MMP-8 Hemmung ([3]; bei 2,5 µM): 50% Hemmung bei 2,5 µM |
